Tests used:
[1] = test system: extensor tonic convulsions; test: Electroshock induced convulsion inhibition assay (E.S.); type: in vivo, mice (Cox standard strain albino male); conditions: Mus musculus, 1 h; oral dose (gavage); mice; 60 min after administration; 0.1 second, 50 milliampere electroshock through corneal electrodes; inhibition of extensor tonic convulsions in half of the animals
Excerpt: The compounds of Formula I are anticonvulsant agents with a high therapeutic ratio and long half-life and are therefore useful in the treatment and prevention of convulsions in mammals. In particular, the compounds are effective against tonic extensor seizures elicited by maximal electroshock and should therefore be useful for treating generalized tonic-clonic ("grand mal"), cortical focal, complex partial (temporal lobe epilepsy), simple partial (focal motor), and post-traumaticseizures in humans. […] In the electroshock induced convulsion inhibition assay (E.S.), the compound to be tested was dissolved in water (5% --sufficient hydrochloric acid was added for those compounds which were not isolated as a salt in order to effect dissolution) and administered by gavage to each of ten Cox standard strain albino male mice (18-24 g) at the dose level being investigated. Sixty minutes after compound administration, the mice were subjected to a 0.1 second, 50 milliampere electroshock through corneal electrodes. The animals were examined and evaluated immediately after the electroshock for the occurrence of clonic, flexor tonic, or extensor tonic convulsions, or death and the ED50 was determined for each compound as the dose which inhibited the occurrence of extensor tonic convulsions in one half of the animals immediately after the electroshock. For comparison, 18 milliamperes was usually sufficient to produce extensor tonic convulsions in about half of the control animals; at 50 milliamperes, almost all control animals (receiving vehicle only) died.

seizures = conditions: man, cited from earlier work

Row | SMILES | ED50 [1] [mg/kg] | further results
1 | Nc1ccc(C(=O)Nc2cccc3c2CCCC3)cc1 [Example 10, 4-Amino-N-(5,6,7,8-tetrahydro-1-naphthalenyl)benzamide] | 100 | 
2 | Cl.Nc1ccc(C(=O)NC2CCCc3ccccc32)cc1 (stereo not shown) [Example 7, 4-amino-N-(1,2,3,4-tetrahydro-1-naphthalenyl)benzamide hydrochloride] | 44.5 | 
3 | Nc1ccc(C(=O)Nc2ccc3ccccc3c2)cc1 [Example 12, 4-Amino-N-2-naphthalenylbenzamide] | > 200 | 
4 | O=C1NC(=O)C(c2ccccc2)(c2ccccc2)N1 [phenytoin] |  | plasma level at which ataxia is obvious (seizures; ataxia): 30000 ng/mL; plasma level at which lethargy is apparent (seizures; lethargy): about 40 mcg/ml; plasma level at which nystagmus is seen (seizures; nystagmus): around 20 mcg/ml; plasma level at which seizures are controlled (seizures): ≥ 10 µg/mL
5 | Cl.Nc1ccc(C(=O)Nc2cccc3ccccc23)cc1 [Example 11, 4-Amino-N-1-naphthalenylbenzamide hydrochloride] | 62 | 
6 | C[C@H](NC(=O)c1ccc(N)cc1)c1cccc2ccccc12.Cl [Example 9, (S)-4-amino-N-[1-(1-naphthalenyl)ethyl]benzamide hydrochloride] | 110 | 
7 | Nc1ccc(C(=O)NC2CCc3ccccc32)cc1 (stereo not shown) [Example 8, 4-Amino-N-(2,3-dihydro-1H-inden-1-yl)benzamide] | 31 | 

Reference: patent US4632939A, “Anticonvulsant agents” (Eli Lilly and Company, priority 1985, dated 1986)
